From US11820994B2, “Methods of inducing apomictic or sexual reproduction” (priority 2018, dated 2023)

Experiments:
Arabidopsis ovules [1] = assay: Pistil culture experiments with 5-azaC, BR (epiBL), DTBA, H2O2 and sugars, meiosis to apomeiosis; type: cell-based, Arabidopsis thaliana; details: BR alone
Excerpt: (§1) To address redox instability, pistils were exposed to the antioxidant DTBA, an antioxidant that protects thiol groups in proteins from oxidization. To address bioenergetic stress, pistils were exposed to sugars. Glucose signaling is one of the most ancient and central signaling pathways in animals and plants and is involved in gene expression, primary and secondary metabolism, and regulation of growth and development (98). In Arabidopsis, rates of glycolysis and mitochondrial bioenergetics are sensed by TOR, which then control root meristem activation (18). If sufficient sugar is supplied, TOR should be activated. Active TOR protects BZR1 and other important BR-regulated enzymes from degradation, and this leads to plant growth (25). Factorial experiments were designed to test the effects of sucrose, glucose, epiBL, DTBA and 5-azaC on apomixis induction. These were designed for each of three sexual species, B. stricta, arabidopsis and cowpea. The experiments were performed and ratios of apomeiosis to meiosis were documented.
Two factorial experiments were conducted using immature arabidopsis pistils. In the first experiment, no 5-azaC, 5-azaC in the pretreatment only, or 5-azaC in both the pretreatment and the tissue culture medium were tested.
Cytological Analyses. Arabidopsis, Drummond's rockcress and cowpea floral buds were fixed in FAA (v/v: 3.7% formaldehyde, 5% acetic acid, 50% ethanol) for 48 h and cleared in 2:1 benzyl benzoate dibutyl phthalate (BBDP) (80): 1) 70% EtOH, 30 min; 95% EtOH, ≥4 h (2×); 95% EtOH:BBDP (2:1), 2 h; 95% EtOH:BBDP (1:2), 4 h; BBDP, 4 h; BBDP, overnight. Cleared pistils were mounted (up to 16 per slide) and measured from the pedicel base to the top of the stigma. Ovule development stages were studied using a BX53 microscope equipped with differential interference contrast optics and a MicroFire 599809 camera (Olympus, Center Valley, Pa., USA). For chromosome staining, pistils were soaked in 95% ethanol that contained 0.1 mg L^−1 4′,6-diamidino-2-phenylindole (DAPI). Callose was stained by soaking DAPI stained pistils in aqueous aniline blue (Millipore Sigma, Darmstadt, Germany) (124). DAPI fluorescence was detected with a Zeiss LSM 510 confocal microscope with excitation at 408 nm, dichroic reflector at HFT488 nm and detection at 450-650 nm. Callose was distinguished from DAPI by detection at 550-650 nm.
Presence of the following ovule characteristics were recorded: MMCs, Antennaria type diplosporous 1-2 nucleate ES, sexual or Taraxacum type diplosporous dyads, sexual tetrads, sexual or Taraxacum type diplosporous 1-2 nucleate ES, AI and AES. Developmental stages for the majority of ovules per pistil were recorded, and pistil lengths for the following stages (125) were recorded: 1-II, ovule meristems protruding from placentae (precedes MMC formation); 2-IV, meiosis; 3-III, vacuole in immature ES beginning to appear; 4-VI, nuclear divisions in endosperm underway. To determine average timing of meiosis onset, pistils primarily containing premeiotic (2-III) ovules were located under low light conditions 1 h before the lights came on in the morning. Corresponding sepals were marked with a small point permanent marker. Pistils were then randomly harvested for analysis when the lights came on and 3 h thereafter.
Pistils were aseptically excised, but not disinfested, at the early pre-MMC to MMC stages and incubated in vitro. The basal culture medium for arabidopsis and Drummond's rockcress was MS (126) (Caisson Laboratories, Inc., Smithfield, UT USA) with 20 g L^−1 sucrose or glucose and solidified with 1.45 g L^−1 Phytogel (MilliporeSigma).

B. stricta ovules [2] = assay: In vivo floral dip in epiBL solution, dyad formation; details: flower buds dipped 3 h in 10 μmol L−1 epiBL; controls 7%
Experimental: (§2) FIG. 40 Frequencies of B. stricta ovules (dyads and tetrads) that were undergoing dyad formation (sexual or diplosporous) at the end of pistil treatment as affected by i) a 3 h in vivo floral dip in solutions containing epibrassinolide (epiBL) or ii) culturing of pistils in epiBL-containing media with in vitro culture of pistils initiated when pistils were in the 1-I or the 2-III to 2-IV stages. Numbers of correctly-staged ovules (dyads plus tetrads) per data point averaged 53 and ranged from 27-82.
(§3) epiBL is the naturally occurring and most biologically active form of BR. Applications of epiBL to pistils of sexual B. stricta, in vivo or in vitro, caused MMC to abort meiosis and instead produce dyads (FIG. 40). […] This induced 31% dyad formation, compared to 7% for the controls (a frequency often observed in sexual plants where they represent an intermediate stage of sexual meiosis). A similar dyad induction frequency (29%) was obtained by culturing 1-I to 2-II staged B. stricta pistils on a 0.1 μmol L−1 epiBL medium for 2 d (FIG. 40).

Arabidopsis embryo sacs = assay: Induction of parthenogenesis and autonomous endosperm formation in pistils; type: cell-based; details: 2 μM BR or 50 mM glucose prior to central cell callose deposition
Experimental: (§4) Scale bars: 50 μm (FIG. 51A), 20 μm (FIGS. 51B-51E).
FIG. 52 Parthenogenesis in putatively diploid Arabidopsis embryo sacs induced by treatment of pistils in emasculated flowers with 2 μM BR or 50 mM glucose. To prevent fertilization, stigmas of pistils were clipped while anthers were immature. These pistils were also treated premeiotically with BR and glucose.
Functional apomixis requires not only apomeiosis but also parthenogenesis and, in plants, endosperm formation.

[3] = system: B. stricta (Drummond's rockcress) ovules; assay: Pistil culture factorial experiment with sucrose, glucose, epiBL, DTBA and 5-azaC; type: cell-based, Boechera stricta
Excerpt: as §1
Both the carbohydrate variable and the other components variable were highly significant (P<0.001). Additionally, three ovules from the sucrose plus epiBL treatment (epiBL in the pretreatment and in the medium) had formed aposporous embryo sacs (AES). Also, two ovules, one from the sucrose-epiBL-epiBL treatment and one from the glucose-DTBA-DTBA treatment, had formed Antennaria-type diplosporous embryo sacs (FIGS. 48A-48H).
(§5) Cytological Analyses. Arabidopsis, Drummond's rockcress and cowpea floral buds were fixed in FAA (v/v: 3.7% formaldehyde, 5% acetic acid, 50% ethanol) for 48 h and cleared in 2:1 benzyl benzoate dibutyl phthalate (BBDP) (80): 1) 70% EtOH, 30 min; 95% EtOH, ≥4 h (2×); 95% EtOH:BBDP (2:1), 2 h; 95% EtOH:BBDP (1:2), 4 h; BBDP, 4 h; BBDP, overnight. Cleared pistils were mounted (up to 16 per slide) and measured from the pedicel base to the top of the stigma. […] DAPI fluorescence was detected with a Zeiss LSM 510 confocal microscope with excitation at 408 nm, dichroic reflector at HFT488 nm and detection at 450-650 nm. […]
Presence of the following ovule characteristics were recorded: MMCs, Antennaria type diplosporous 1-2 nucleate ES, sexual or Taraxacum type diplosporous dyads, sexual tetrads, sexual or Taraxacum type diplosporous 1-2 nucleate ES, AI and AES. Developmental stages for the majority of ovules per pistil were recorded, and pistil lengths for the following stages (125) were recorded: 1-II, ovule meristems protruding from placentae (precedes MMC formation); 2-IV, meiosis; 3-III, vacuole in immature ES beginning to appear; 4-VI, nuclear divisions in endosperm underway. […]

B. stricta ovules [4] = assay: In vitro culture of pistils on epiBL-containing medium, dyad formation; type: cell-based
Experimental: as §2, §3

Arabidopsis anthers = assay: Anthers cultured in vitro with epiBL, unreduced pollen microspores; type: cell-based; details: 0.1 μM epiBL on 2% sucrose medium for 24 h
Excerpt: as §4

Arabidopsis ovules [5] = assay: Topical application of BR or glucose to intact pistils, apomeiosis induction; type: in vivo, Arabidopsis thaliana
Experimental: Most of the functional megaspores from these treatments originated by Taraxacum-type diplospory (FIG. 42) with frequent subepidermal layer of cells with or without a parietal cell. A few cases of Antennaria-type diplospory were also observed (FIG. 43).
as §5
Presence of the following ovule characteristics were recorded: MMCs, Antennaria type diplosporous 1-2 nucleate ES, sexual or Taraxacum type diplosporous dyads, sexual tetrads, sexual or Taraxacum type diplosporous 1-2 nucleate ES, AI and AES. […]
For topical applications, sepals of floral buds were separated, and pistil lengths were measured using a dissecting microscope. […]

**Q.** What does the source list for `CC(C)[C@@H](C)[C@@H](O)[C@H](O)[C@@H](C)[C@H]1CC[C@H]2[C@@H]3COC(=O)[C@H]4C[C@H](O)[C@H](O)C[C@]4(C)[C@H]3CC[C@]12C` [epiBL, epibrassinolide]?
**A.** AES formation (Arabidopsis ovules [1]): Low levels; ovules with meiosis stopped, MMC undergoing Taraxacum type dyad or ES formation (Arabidopsis ovules [1]): 45%; dyad formation (B. stricta ovules [2]): 31%; callose deposition, parthenogenesis and autonomous endosperm formation (Arabidopsis embryo sacs): prevented stress-associated callose deposition and activated parthenogenesis and autonomous endosperm formation; number of ovules that formed aposporous embryo sacs (AES) ([3]; sucrose plus epiBL, epiBL in the pretreatment and in the medium): three; number of ovules that formed Antennaria-type diplosporous embryo sacs ([3]; sucrose-epiBL-epiBL treatment): one; dyad induction frequency (B. stricta ovules [4]; 1-I to 2-II staged pistils on 0.1 μmol L−1 epiBL medium for 2 d): 29%; unreduced embryo sacs forming from epiBL-induced dyads (B. stricta ovules [4]; epiBL treatments): only rarely observed; ratios of observed dyads (B. stricta ovules [4]; epiBL treatments (in vivo or in vitro)): 30%; unreduced pollen microspores (Arabidopsis anthers): Unreduced pollen dyads of microspores; apomeiotic dyad formation (Arabidopsis ovules [5]; intact pistils treated with BR or glucose solutions (2 μM BR or 50 mM glucose)): induced high frequency apomeiotic dyad formation; Taraxacum-type diplospory induction (Arabidopsis ovules [5]; topical applications 24 h before or immediately before meiosis): induced Taraxacum-type diplospory
